Data: the supplement of paper PMC8253809

What was measured:
[1] = tested on: SUDIPGXXI (diffuse intrinsic pontine glioma line); assay: area under dose-response curve of % growth inhibition (log2 RLU vs DMSO / staurosporine), 1e-11 to 1e-4 M (% x log10 M); higher = more growth inhibition
Method in brief: (§1)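 On 1% Geltrex-coated 384-well plates, patient-derived pHGG/DIPG cell lines and astrocytes were treated in triplicate across 10 threefold dilutions (mean top concentration 35 μM) for 7 days, with iAstro treated for 3 days, at 37 °C, 5% CO2. Log2-transformed CellTiter-Glo luminescence was normalised per plate to % activity between solvent and positive controls. Area under the curve was obtained by the trapezoid rule from a log-logistic fit, or from a smoothing spline when that fit failed.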

[2] = tested on: DIPGX7 (H3.3 K27M diffuse intrinsic pontine glioma line); assay: as above
Method in brief: as §1

[3] = tested on: HGGX2 (paediatric high-grade glioma line); assay: as above
Method in brief: as §1

[4] = tested on: DIPGX37 (H3.3 K27M diffuse intrinsic pontine glioma line); assay: as above
Method in brief: as §1

[5] = tested on: SUDIPGXVII (diffuse intrinsic pontine glioma line); assay: as above
Method in brief: as §1

[6] = tested on: SUDIPGVI (diffuse intrinsic pontine glioma line); assay: as above
Method in brief: as §1

[7] = tested on: iAstro (astrocyte control); assay: as above
Method in brief: as §1

[8] = tested on: SUDIPGXIX (diffuse intrinsic pontine glioma line); assay: as above
Method in brief: as §1

[9] = tested on: HGGX6 (H3.3 G34R paediatric high-grade glioma line); assay: as above
Method in brief: as §1

[10] = tested on: DIPGX9 (diffuse intrinsic pontine glioma line); assay: as above
Method in brief: as §1

[11] = tested on: SUDIPGIV (diffuse intrinsic pontine glioma line); assay: as above
Method in brief: as §1

[12] = tested on: SUDIPGXIII (diffuse intrinsic pontine glioma line); assay: as above
Method in brief: as §1

[13] = tested on: DIPGX29 (H3.3 K27M diffuse intrinsic pontine glioma line); assay: as above
Method in brief: as §1

[14] = tested on: HABS (astrocyte control); assay: as above
Method in brief: as §1

[15] = tested on: HGGX42 (H3.3 G34R paediatric high-grade glioma line); assay: as above
Method in brief: as §1

[16] = tested on: HGGX39 (paediatric high-grade glioma line); assay: as above
Method in brief: as §1

[17] = tested on: SUDIPGXXI; assay: maximal growth inhibition (yFin) relative to DMSO / staurosporine; higher = more efficacious
Method in brief: (§2)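 Patient-derived pHGG/DIPG cell lines and astrocyte controls were grown on 1% Geltrex-coated 384-well plates and exposed by pin tool to a 10-point threefold dilution series (mean top concentration 35 μM), in triplicate. Exposure was 7 days (iAstro 3 days) at 37 °C, 5% CO2. CellTiter-Glo luminescence was log2-transformed, normalised per plate to % activity between negative (solvent) and positive control wells, and pooled. EC50 and maximal response (yFin) come from the lowest-AICc three- or four-parameter log-logistic fit.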

[18] = tested on: DIPGX7; assay: as above
Method in brief: as §2

[19] = tested on: DIPGX37; assay: as above
Method in brief: as §2

[20] = tested on: SUDIPGXVII; assay: as above
Method in brief: as §2

[21] = tested on: SUDIPGVI; assay: as above
Method in brief: as §2

[22] = tested on: iAstro; assay: as above
Method in brief: as §2

[23] = tested on: SUDIPGIV; assay: as above
Method in brief: as §2

[24] = tested on: SUDIPGXIII; assay: as above
Method in brief: as §2

[25] = tested on: DIPGX29; assay: as above
Method in brief: as §2

[26] = tested on: HGGX42; assay: as above
Method in brief: as §2

[27] = tested on: HGGX39; assay: as above
Method in brief: as §2

[28] = tested on: SUDIPGXXI; assay: EC50 (inflection of fitted growth-inhibition curve) (log10 M)
Method in brief: as §2

[29] = tested on: DIPGX7; assay: as above
Method in brief: as §2

[30] = tested on: DIPGX37; assay: as above
Method in brief: as §2

[31] = tested on: SUDIPGXVII; assay: as above
Method in brief: as §2

[32] = tested on: SUDIPGVI; assay: as above
Method in brief: as §2

[33] = tested on: iAstro; assay: as above
Method in brief: as §2

[34] = tested on: SUDIPGIV; assay: as above
Method in brief: as §2

[35] = tested on: SUDIPGXIII; assay: as above
Method in brief: as §2

[36] = tested on: DIPGX29; assay: as above
Method in brief: as §2

[37] = tested on: HGGX42; assay: as above
Method in brief: as §2

[38] = tested on: HGGX39; assay: as above
Method in brief: as §2

[39] = tested on: HGGX6; assay: maximal growth inhibition (yFin) relative to DMSO / staurosporine; higher = more efficacious
Method in brief: as §2

[40] = tested on: HGGX6; assay: EC50 (inflection of fitted growth-inhibition curve) (log10 M)
Method in brief: as §2

[41] = tested on: SUDIPGXIX; assay: maximal growth inhibition (yFin) relative to DMSO / staurosporine; higher = more efficacious
Method in brief: as §2

[42] = tested on: DIPGX9; assay: as above
Method in brief: as §2

[43] = tested on: HABS; assay: as above
Method in brief: as §2

[44] = tested on: SUDIPGXIX; assay: EC50 (inflection of fitted growth-inhibition curve) (log10 M)
Method in brief: as §2

[45] = tested on: DIPGX9; assay: as above
Method in brief: as §2

[46] = tested on: HABS; assay: as above
Method in brief: as §2

[47] = tested on: HGGX2; assay: maximal growth inhibition (yFin) relative to DMSO / staurosporine; higher = more efficacious
Method in brief: as §2

[48] = tested on: HGGX2; assay: EC50 (inflection of fitted growth-inhibition curve) (log10 M)
Method in brief: as §2

Row | SMILES | area under dose-response curve [1] | area under dose-response curve [2] | area under dose-response curve [3] | area under dose-response curve [4] | area under dose-response curve [5] | area under dose-response curve [6] | area under dose-response curve [7] | area under dose-response curve [8] | area under dose-response curve [9] | area under dose-response curve [10] | area under dose-response curve [11] | area under dose-response curve [12] | area under dose-response curve [13] | area under dose-response curve [14] | area under dose-response curve [15] | area under dose-response curve [16] | maximal growth inhibition [21] | maximal growth inhibition [24] | EC50 (log10 M) [32] | EC50 (log10 M) [35] | other results
1 | Fc1ccc(-c2c3cccc(C(F)(F)F)c3nn2Cc2ccc(F)cc2Cl)cc1 | 165 | 53.6 | 13.1 | 53 | 40.7 | 39.9 | 38.3 | 2.47 | 6.34 | 31.5 | 67.1 | 52.8 | 38.1 | 9.3 | 40.2 | 39.9 | 42.8% | 51.1% | -4.94 | -5.05 | maximal growth inhibition [17]: 112%; maximal growth inhibition [18]: 40.8%; maximal growth inhibition [19]: 49.6%; maximal growth inhibition [20]: 30.9%; maximal growth inhibition [22]: 33.9%; maximal growth inhibition [23]: 60.3%; maximal growth inhibition [25]: 38.7%; maximal growth inhibition [26]: 38.9%; maximal growth inhibition [27]: 38.1%; EC50 (log10 M) [28]: -5.13; EC50 (log10 M) [29]: -5.33; EC50 (log10 M) [30]: -5.07; EC50 (log10 M) [31]: -5.16; EC50 (log10 M) [33]: -5.13; EC50 (log10 M) [34]: -5.12; EC50 (log10 M) [36]: -4.98; EC50 (log10 M) [37]: -5.03; EC50 (log10 M) [38]: -5.05
2 | CC(C)C[C@H](NC(=O)[C@H](Cc1ccccc1)NC(=O)c1cnccn1)B(O)O [BORTEZOMIB] | 634 | 575 | 450 | 493 | 392 | 499 | 461 | 568 | 347 | 571 | 581 | 491 | 287 | 506 | 312 | 455 | 95.6% | 96.5% | -9.92 | -9.99 | maximal growth inhibition [20]: 91.2%; maximal growth inhibition [39]: 91.4%; EC50 (log10 M) [31]: -8.34; EC50 (log10 M) [40]: -7.84
3 | CS[C@H]1SC[C@H]2C(=O)N(C)[C@@H](C(C)C)C(=O)OC[C@@H](NC(=O)c3cnc4ccccc4n3)C(=O)N[C@@H](C)C(=O)N(C)[C@@H]1C(=O)N(C)[C@@H](C(C)C)C(=O)OC[C@@H](NC(=O)c1cnc3ccccc3n1)C(=O)N[C@@H](C)C(=O)N2C [ECHINOMYCIN] | 577 | 488 | 383 | 508 | 425 | 399 | 139 | 520 | 337 | 510 | 505 | 335 | 489 | 371 | 432 | 507 | 71% | 70.4% | -10.8 | -8.75 | maximal growth inhibition [20]: 96.4%; maximal growth inhibition [39]: 75.4%; maximal growth inhibition [26]: 76.3%; EC50 (log10 M) [31]: -8.81; EC50 (log10 M) [40]: -8.49; EC50 (log10 M) [37]: < -11
4 | Nc1ccc2ncnc(NCCc3ccc(Oc4ccccc4)cc3)c2c1 [EVP4593] | 224 | 447 | 71.8 | 275 | 171 | 242 | 113 | 178 | 156 | 183 | 296 | 348 | 179 | 141 | 173 | 216 | 54.6% | 84.8% | -8.43 | -8.11 | maximal growth inhibition [20]: 35.9%; maximal growth inhibition [41]: 47.8%; maximal growth inhibition [39]: 38.5%; maximal growth inhibition [42]: 46.2%; maximal growth inhibition [23]: 74.9%; maximal growth inhibition [25]: 45.1%; maximal growth inhibition [43]: 37.7%; maximal growth inhibition [26]: 44.9%; maximal growth inhibition [27]: 46.7%; EC50 (log10 M) [31]: -8.18; EC50 (log10 M) [44]: -7.71; EC50 (log10 M) [40]: -8.04; EC50 (log10 M) [45]: -7.97; EC50 (log10 M) [34]: -7.95; EC50 (log10 M) [36]: -7.98; EC50 (log10 M) [46]: -7.75; EC50 (log10 M) [37]: -7.84; EC50 (log10 M) [38]: -8.62
5 | CC(C)c1cc(-c2n[nH]c(=O)n2-c2ccc3c(ccn3C)c2)c(O)cc1O [GANETESPIB] | 432 | 106 | 257 | 306 | 242 | 158 | 164 | 395 | 153 | 440 | 238 | 215 | 195 | 329 | 226 | 271 | 41.2% | 56% | -7.86 | -7.84 | maximal growth inhibition [18]: 44.1%; maximal growth inhibition [19]: 81.5%; maximal growth inhibition [20]: 61.6%; maximal growth inhibition [41]: 87.3%; maximal growth inhibition [39]: 39.8%; maximal growth inhibition [42]: 114%; maximal growth inhibition [23]: 58.4%; maximal growth inhibition [25]: 51.8%; maximal growth inhibition [43]: 84.5%; maximal growth inhibition [27]: 77.3%; EC50 (log10 M) [29]: -6.1; EC50 (log10 M) [30]: -7.76; EC50 (log10 M) [31]: -7.92; EC50 (log10 M) [44]: -8.72; EC50 (log10 M) [40]: -7.85; EC50 (log10 M) [45]: -7.98; EC50 (log10 M) [34]: -8.08; EC50 (log10 M) [36]: -7.76; EC50 (log10 M) [46]: -7.9; EC50 (log10 M) [38]: -7.51
6 | COC(=O)Nc1nc2cc(C(=O)c3ccccc3)ccc2[nH]1 [MEBENDAZOLE] | 246 | 20.7 | 93.5 | 94.4 | 40.1 | 30.4 | 47.3 | 71 | 27.4 | 90 | 93.5 | 17.5 | 53.6 | 80.6 | 38.7 | 73.2 | 22.1% |  | -5.51 |  | maximal growth inhibition [17]: 98.3%; maximal growth inhibition [47]: 47.6%; maximal growth inhibition [19]: 36.4%; maximal growth inhibition [22]: 28.1%; maximal growth inhibition [41]: 31.4%; maximal growth inhibition [42]: 36.9%; maximal growth inhibition [23]: 63.1%; maximal growth inhibition [25]: 25.1%; maximal growth inhibition [43]: 32.9%; maximal growth inhibition [27]: 28.5%; EC50 (log10 M) [28]: -6.53; EC50 (log10 M) [48]: -5.91; EC50 (log10 M) [30]: -6.7; EC50 (log10 M) [33]: -5.94; EC50 (log10 M) [44]: -6.45; EC50 (log10 M) [45]: -6.44; EC50 (log10 M) [34]: -5.58; EC50 (log10 M) [36]: -6.23; EC50 (log10 M) [46]: -6.45; EC50 (log10 M) [38]: -6.61
7 | CC[C@]1(O)C[C@H]2CN(CCc3c([nH]c4ccccc34)[C@@](C(=O)OC)(c3cc4c(cc3OC)N(C=O)[C@H]3[C@@](O)(C(=O)OC)[C@H](OC(C)=O)[C@]5(CC)C=CCN6CC[C@]43[C@@H]65)C2)C1 [VINCRISTINE] | 606 | 212 | 345 | 189 | 187 | 256 | 127 | 253 | 99.2 | 292 | 284 | 123 | 163 | 200 | 103 | 152 | 77.9% | 64% | -7.28 | -5.77 | maximal growth inhibition [18]: 95.3%; maximal growth inhibition [47]: 92.8%; maximal growth inhibition [22]: 61.4%; maximal growth inhibition [41]: 98.2%; maximal growth inhibition [23]: 101%; maximal growth inhibition [26]: 97.3%; EC50 (log10 M) [29]: -5.71; EC50 (log10 M) [48]: -7.75; EC50 (log10 M) [33]: -5.97; EC50 (log10 M) [44]: -6.46; EC50 (log10 M) [34]: -6.56; EC50 (log10 M) [37]: -4.84
